In US20080103205A1, “Pesticidal compositions and methods of use” (priority 2006, published 2008):
Like-named read-outs stand apart in the source and are kept apart here.

Assays:
Meloidogyne incognita = assay: Toxicity test, J2 juveniles of Meloidogyne incognita, 96 well micro plate; type: in vivo; conditions: Meloidogyne incognita
Description: (§1) Methodology: Toxicity tests were conducted using J2 juveniles of Meloidogyne incognita adult Caenorhabditis elegans collected from nematode-infested tomato plant roots and culture Petri plates, respectively. Test concentrations of 50, 100, 200, 300, or 400 ppm were prepared in 0.2% dimethylsulfoxide (DMSO) in tap water. Aliquots (300 microliters (ul)) were applied to a 96 well micro plate and a 20 ul aqueous solution containing nematodes was added. The number of nematodes in 20 ul ranged from 17 to 30. Micro plates were sealed with Parafilm™ and incubated at room temperature. Similar tests conducted with 0.2% DMSO in tap water served as controls. Nematode mortality was checked at 24, 48, 72, 120, and 168 hr after incubation. Nematodes that were motionless for 30 sec when observed under a stereomicroscope were considered paralyzed and included in mortality counts. Each concentration was replicated five times and mean percent mortality was calculated after correcting for control mortality using Abbott's formula.
(§2) Data Analysis: Mortality data were analyzed using PROC PROBIT (SAS) program and LC50 values were estimated.

Caenorhabditis elegans = assay: Toxicity test, adult Caenorhabditis elegans, 96 well micro plate; type: in vivo; conditions: Caenorhabditis elegans
Description: as §1, §2

[1] = 24 h, read-out: Corrected Mortality (%)
[2] = 48 h, read-out: Corrected Mortality (%)
[3] = 72 h, read-out: Corrected Mortality (%)
[4] = 120 h, read-out: Corrected Mortality (%)
[5] = 168 h, read-out: Corrected Mortality (%)

CC1(C2CCCC2)Cc2cc(OCC(=O)O)c(Cl)c(Cl)c2C1=O (single isomer, unassigned; (+)) [IAA-94, (+)(2-cyclopentyl-6,7-dichloro-2-methyl-1-oxo-5-indanyloxy) acetic acid]
mortality at 50 ppm (Meloidogyne incognita; 24 h): 8% | mortality at 100 ppm (Meloidogyne incognita; 24 h): 10% | mortality at 200 ppm (Meloidogyne incognita; 24 h): 14% | mortality at 300 ppm (Meloidogyne incognita; 24 h): 20% | mortality at 400 ppm (Meloidogyne incognita; 24 h): 24% | mortality at 50 ppm (Meloidogyne incognita; [1]): 5% | mortality at 100 ppm (Meloidogyne incognita; [1]): 7% | mortality at 200 ppm (Meloidogyne incognita; [1]): 11% | mortality at 300 ppm (Meloidogyne incognita; [1]): 19% | mortality at 400 ppm (Meloidogyne incognita; [1]): 22% | mortality at 50 ppm (Meloidogyne incognita; 48 h): 17% | mortality at 100 ppm (Meloidogyne incognita; 48 h): 22% | mortality at 200 ppm (Meloidogyne incognita; 48 h): 34% | mortality at 300 ppm (Meloidogyne incognita; 48 h): 38% | mortality at 400 ppm (Meloidogyne incognita; 48 h): 43% | mortality at 50 ppm (Meloidogyne incognita; [2]): 12% | mortality at 100 ppm (Meloidogyne incognita; [2]): 17% | mortality at 200 ppm (Meloidogyne incognita; [2]): 30% | mortality at 300 ppm (Meloidogyne incognita; [2]): 34% | mortality at 400 ppm (Meloidogyne incognita; [2]): 39% | mortality at 50 ppm (Meloidogyne incognita; 72 h): 30% | mortality at 100 ppm (Meloidogyne incognita; 72 h): 38% | mortality at 200 ppm (Meloidogyne incognita; 72 h): 61% | mortality at 300 ppm (Meloidogyne incognita; 72 h): 65% | mortality at 400 ppm (Meloidogyne incognita; 72 h): 70% | mortality at 50 ppm (Meloidogyne incognita; [3]): 22% | mortality at 100 ppm (Meloidogyne incognita; [3]): 31% | mortality at 200 ppm (Meloidogyne incognita; [3]): 57% | mortality at 300 ppm (Meloidogyne incognita; [3]): 61% | mortality at 400 ppm (Meloidogyne incognita; [3]): 67% | mortality at 50 ppm (Meloidogyne incognita; 120 h): 51% | mortality at 100 ppm (Meloidogyne incognita; 120 h): 61% | mortality at 200 ppm (Meloidogyne incognita; 120 h): 83% | mortality at 300 ppm (Meloidogyne incognita; 120 h): 90% | mortality at 400 ppm (Meloidogyne incognita; 120 h): 97% | mortality at 50 ppm (Meloidogyne incognita; [4]): 45% | mortality at 100 ppm (Meloidogyne incognita; [4]): 56% | mortality at 200 ppm (Meloidogyne incognita; [4]): 81% | mortality at 300 ppm (Meloidogyne incognita; [4]): 89% | mortality at 400 ppm (Meloidogyne incognita; [4]): 97% | mortality at 50 ppm (Meloidogyne incognita; 168 h): 74% | mortality at 100 ppm (Meloidogyne incognita; 168 h): 85% | mortality at 200 ppm (Meloidogyne incognita; 168 h): 99% | mortality at 300 ppm (Meloidogyne incognita; 168 h): 100% | mortality at 400 ppm (Meloidogyne incognita; 168 h): 100% | mortality at 50 ppm (Meloidogyne incognita; [5]): 71% | mortality at 100 ppm (Meloidogyne incognita; [5]): 83% | mortality at 200 ppm (Meloidogyne incognita; [5]): 99% | mortality at 300 ppm (Meloidogyne incognita; [5]): 100% | mortality at 400 ppm (Meloidogyne incognita; [5]): 100% | mortality at 50 ppm (Caenorhabditis elegans; 24 h): 8% | mortality at 100 ppm (Caenorhabditis elegans; 24 h): 14% | mortality at 200 ppm (Caenorhabditis elegans; 24 h): 17% | mortality at 300 ppm (Caenorhabditis elegans; 24 h): 21% | mortality at 400 ppm (Caenorhabditis elegans; 24 h): 24% | mortality at 50 ppm (Caenorhabditis elegans; [1]): 5% | mortality at 100 ppm (Caenorhabditis elegans; [1]): 11% | mortality at 200 ppm (Caenorhabditis elegans; [1]): 14% | mortality at 300 ppm (Caenorhabditis elegans; [1]): 19% | mortality at 400 ppm (Caenorhabditis elegans; [1]): 22% | mortality at 50 ppm (Caenorhabditis elegans; 48 h): 17% | mortality at 100 ppm (Caenorhabditis elegans; 48 h): 29% | mortality at 200 ppm (Caenorhabditis elegans; 48 h): 38% | mortality at 300 ppm (Caenorhabditis elegans; 48 h): 43% | mortality at 400 ppm (Caenorhabditis elegans; 48 h): 48% | mortality at 50 ppm (Caenorhabditis elegans; [2]): 13% | mortality at 100 ppm (Caenorhabditis elegans; [2]): 25% | mortality at 200 ppm (Caenorhabditis elegans; [2]): 35% | mortality at 300 ppm (Caenorhabditis elegans; [2]): 40% | mortality at 400 ppm (Caenorhabditis elegans; [2]): 45% | mortality at 50 ppm (Caenorhabditis elegans; 72 h): 35% | mortality at 100 ppm (Caenorhabditis elegans; 72 h): 44% | mortality at 200 ppm (Caenorhabditis elegans; 72 h): 64% | mortality at 300 ppm (Caenorhabditis elegans; 72 h): 71% | mortality at 400 ppm (Caenorhabditis elegans; 72 h): 77% | mortality at 50 ppm (Caenorhabditis elegans; [3]): 31% | mortality at 100 ppm (Caenorhabditis elegans; [3]): 40% | mortality at 200 ppm (Caenorhabditis elegans; [3]): 62% | mortality at 300 ppm (Caenorhabditis elegans; [3]): 69% | mortality at 400 ppm (Caenorhabditis elegans; [3]): 76% | mortality at 50 ppm (Caenorhabditis elegans; 120 h): 58% | mortality at 100 ppm (Caenorhabditis elegans; 120 h): 70% | mortality at 200 ppm (Caenorhabditis elegans; 120 h): 90% | mortality at 300 ppm (Caenorhabditis elegans; 120 h): 94% | mortality at 400 ppm (Caenorhabditis elegans; 120 h): 98% | mortality at 50 ppm (Caenorhabditis elegans; [4]): 53% | mortality at 100 ppm (Caenorhabditis elegans; [4]): 67% | mortality at 200 ppm (Caenorhabditis elegans; [4]): 89% | mortality at 300 ppm (Caenorhabditis elegans; [4]): 93% | mortality at 400 ppm (Caenorhabditis elegans; [4]): 98% | mortality at 50 ppm (Caenorhabditis elegans; 168 h): 81% | mortality at 100 ppm (Caenorhabditis elegans; 168 h): 94% | mortality at 200 ppm (Caenorhabditis elegans; 168 h): 99% | mortality at 300 ppm (Caenorhabditis elegans; 168 h): 100% | mortality at 400 ppm (Caenorhabditis elegans; 168 h): 100% | mortality at 50 ppm (Caenorhabditis elegans; [5]): 78% | mortality at 100 ppm (Caenorhabditis elegans; [5]): 93% | mortality at 200 ppm (Caenorhabditis elegans; [5]): 99% | mortality at 300 ppm (Caenorhabditis elegans; [5]): 100% | mortality at 400 ppm (Caenorhabditis elegans; [5]): 100%
